From patent US10130695B2, “Compositions containing combinations of bioactive molecules derived from microbiota for treatment of disease” (priority 2013, dated 2018)

Tests used:
[1] = tested on: Splenic naïve (CD44loCD62Lhi) CD4+ T cells; experiment: Treg induction in vitro (FACS); assay type: cell-based; settings: anti-CD3/anti-CD28 mAb-coated beads, TGF-β; compared to no treatment control; FIG. 1
From the text: First, to gain mechanistic insight into the induction of Tregs by bacteria belonging to Clostridium Clusters IV, XIVa, and XVIII, germ-free mice were colonized with a cocktail of bacteria comprising bacterial strains belonging to Clostridium Cluster IV, bacterial strains belonging to Clostridium Cluster XIVa, and bacterial strains belonging to Clostridium Cluster XVIII (“Clostridium-colonized mice”). To identify metabolites potentially involved in Treg induction, the hundreds of metabolites present in the luminal composition of Clostridium-colonized, ex-germ free mice were painstakingly investigated with NMR-based metabolome analysis coupled with principal component analysis (PCA). […] The influence of acetate, propionate, and butyrate on Treg induction in vitro was measured as follows: Splenic naïve (CD44^loCD62L^hi) CD4+ T cells were stimulated with anti-CD3 and anti-CD28 mAb-coated beads and cultured in the presence of T-cell antigen receptor signaling and TGF-β with or without each of these short-chain fatty acids listed above.

[2] = tested on: OT-I CD8 T cells with colonic lamina propria CD4+CD25+ Treg cells; experiment: Cognate antigen-driven suppression assay; assay type: cell-based, mice; settings: experiment repeated adding flagellin; after 3 days
Description: Fourth, investigation was carried to determine whether bacteria belonging to Clostridium Clusters IV, XIVa, and XVIII provide bacterial antigens to T cells. To do this, assessment was carried out of the antigen specificity of Tregs accumulated in mice colonized by a mixture of 17strains belonging to Clostridium Clusters, […] (“17-mix”) using a cognate antigen-driven suppression assay. […] CD 11c+cells were isolated from spleens of SPF C57BL/6 mice, pulsed with 0.5 μM SIINFEKL (SEQ ID NO: 2) OT-I peptide alone or in combination with either of 5μM ISQAVHAAHAEINEAGR (SEQ ID NO: 3) OT-II peptide or autoclaved caecal contents from +17-mix mice, and plated at 5 x 10^4well. CD8OT-I T cells (Teff) were added to the CD11c+cell-seeded plates at 5 x 10^4/well. Then, CD4+CD25+T cells sorted from colonic LP of +17-mix mice (LP Treg) or from spleens of SPF OT-II mice (OT-II Treg) were added to the culture at the indicated ratio of Treg to Teff cells. After 3 days, all cells were harvested, stained with anti-CD4 and anti-CD8antibodies, and analysed by flow cytometry to enumerate the number of CD8 OT-I T cells. Depicted data in FIG. 4b represent average of duplicates. […]

Molecule | differentiation of Treg cells [1] | colonic Lamina Propria Treg cells specific for the antigen [2]
CCC(=O)O [propionate] | enhanced differentiation of Treg cells | –
CC(=O)O [acetate] | enhanced differentiation of Treg cells | –
flagellin: flagellin (SEQ ID NO 1), an antigen highly abundant in bacteria belonging to Clostridium Clusters IV, XIVa, and XVIII (protein) MVVQHNLQAMNSNRMLGITQKTASKSTEKLSSGYAINRAADNAAGLAISEKMRKQIRGLTQASTNAEDGISSVQTAEGALTEVHDMLQRMNELAIQAANGTNSEDDRSYIQDEIDQLTQEIDRVAETTKFNETYLLKGDTKNVDAMDYTYSYKAVTTNTVARASVLAAENTATGMSVSISFAANSGKVTAADSNNLAKAIRDQGFTITTSTQNGKVVYGLELNGSDAKANYTVSTVSMEAGTFKILNSNKQVVASVTISTTASFKKVSGMSQIVTAYSVSAAYATGDVYSLYDADGNAISANKLDKYFTAGGATEAGGIATTLSANSGVPKVYDVLGKEVSAVSIASTLVTAVKDKTAALKMNFHVGADGTDNNKIKINIEAMTAKSLGVNGLKVSGSSGTNATNAIEIIAGAIKKVSTQRSALGAVQNRLEHTINNLDNIVENTTAAESGIRDTDMATEMVKYSNANILSQAGQSMLAQSNQSNQGVLQLLQ | – | colonic Lamina Propria Treg cells specific for flagellin were isolated
